{"source": "patent US20220296615A1", "about": "“COMBINATION PRODUCT CONTAINING LIMONOID COMPOUND AND SULFONYLUREA COMPOUND” (ZHEJIANG YANGSHENGTANG INSTITUTE OF NATURAL MEDICATION CO., …, priority 2019, published 2022)", "type_in_all_cases": "in vivo", "key": {"[1]": {"tested_on": "STZ mice (mouse pancreatic islet β-cell injury model)", "assay": "Blood glucose in mouse pancreatic islet β-cell injury model (STZ), limonoid compound, glibenclamide or combination", "conditions": "STZ ICR mice, single administration 0.02 g/kg per day by gavage, two weeks, 1 h after last administration; model group 29.5 ± 4.6, normal 7.5 ± 0.6", "text": "The limonoid compound was selected from the group consisting of limonin, isolimonic acid, limonin glycoside, and isolimonic acid glycoside, and glibenclamide single administration group, limonin single administration group, isolimonic acid single administration group, limonin glycoside singe administration group, isolimonic acid glycoside singe administration group, and respective combination thereof with glibenclamide administration groups were set. Conditions of experimental feeding: ICR mice (20±2 g), aged 6 weeks, purchased from Zhejiang Academy of Medical Sciences, and subjected to experimental feeding after 7 days of preliminary feeding. It should be noted that the conditions for raising the mice were as follows: the temperature was 23±1° C., the humidity was 55±10%, the lights were turned on between 7 am and 7 pm (the lights were turned off at other time), and the mice were allowed to freely take in water and feed. The experimental feed was mouse growth-stable feed (GB […]), and the daily feeding and management of the animals were under the responsibility of the animal security department, which provided the animals with sufficient diet and fresh drinking water daily. […] The data were expressed as mean and standard deviation. The data before and after were analyzed by t-test, and P<0.05 was considered statistically significant."}, "[2]": {"tested_on": "db/db mice", "assay": "Blood glucose and leptin in mouse type II diabetes model, limonoid compound, gliclazide or combination", "conditions": "single administration 0.04 g/kg per day by gavage, two weeks, 1 h after last administration, model group 23.9 ± 4.2, normal 6.0 ± 0.7", "text": "In the present example, db/db mice (line name BKS.Cg-Dock7^m+/+Lepr^db/Nju) were used to perform hypoglycemic efficacy evaluation test of animals (blood glucose level and leptin). The limonoid compound was selected from obacunone, isoobacunoic acid and obacunone glycoside, and gliclazide single administration group, obacunone single administration group, isoobacunoic acid single administration group, obacunone glycoside single administered group, and respective combination thereof with gliclazide administration groups were set. Conditions for experimental feeding: as type II diabetes model mice, 6-week-old SPF-grade db/db mice were purchased from the Nanjing Model Biology Institute, and subjected to experimental feeding after 7 days of preliminary feeding. It should be noted that the conditions for raising the mice were as follows: the temperature was 23±1° C., the humidity was 55±10%, the lights were turned on between 7 am and 7 pm (the lights were turned off at other time), and the mice were allowed to freely take in water and feed. […] The data were expressed as mean and standard deviation. The data before and after were analyzed by t-test, and P<0.05 was considered statistically significant."}, "[3]": {"tested_on": "STZ mice (type II diabetes with pancreatic islet damage and obesity)", "assay": "Blood glucose in mouse type II diabetes model with pancreatic islet damage and obesity (STZ + high-fat diet), limonoid compound, glimepiride or combination", "conditions": "STZ + high-fat diet ICR mice, single administration 0.5 g/kg per day by gavage, two weeks, 1 h after last administration; model group 29.6 ± 6.0, normal 5.9 ± 0.54", "text": "In this example, a mouse model of type II diabetes with pancreatic islet damage and obesity was established by multiple modeling ICR mice with a small dose of streptozotocin (STZ), following with continuous high-fat diets (referring to literature: […] Conditions of experimental feeding: ICR mice (20±2 g), aged 6 weeks, purchased from Zhejiang Academy of Medical Sciences, and subjected to experimental feeding after 7 days of preliminary feeding. It should be noted that the conditions for raising the mice were as follows: the temperature was 23±1° C., the humidity was 55±10%, the lights were turned on between 7 am and 7 pm (the lights were turned off at other time), and the mice were allowed to freely take in water and feed. The experimental feed was mouse growth-stable feed (GB […]), and the daily feeding and management of the animals were under the responsibility of the animal security department, which provided the animals with sufficient diet and fresh drinking water daily. […] The data were expressed as mean and standard deviation. The data before and after were analyzed by t-test, and P<0.05 was considered statistically significant."}, "[4]": {"tested_on": "STZ mice (mouse pancreatic islet β-cell injury model)", "assay": "Blood glucose in mouse pancreatic islet β-cell injury model (STZ), limonoid compound, glipizide or combination", "conditions": "STZ ICR mice, single administration 0.1 g/kg per day by gavage, two weeks, 1 h after last administration; model group 29.5 ± 4.6, normal 7.5 ± 0.6", "text": "In this example, a mouse pancreatic islet β-cell injury model was established by modeling ICR mice with streptozotocin (STZ) (Li Nan et al., Protective effect of pine pollen on kidney damage in diabetic nephropathy mice, Science and Technology Review, 2014, 32 (4/5): 95-99), and used to complete the evaluation of hypoglycemic effect in animals (this model could simulate pancreatic islet β-cell damage state of type I and type II diabetics). […]\nGavage doses: the gavage dose was 0.1 g/kg per day for the ichangin group, the gavage dose was 0.1 g/kg per day for the ichangensin group, the gavage dose was 0.1 g/kg per day for the ichangin glycoside group, the gavage dose of glipizide was 0.1 g/kg per day for the glipizide group, ichangin at a dose of 0.05 g/kg and glipizide at a dose of 0.05 g/kg were simultaneously gavaged per day for the ichangin/glipizide combination group, ichangensin at a dose of 0.05 g/kg and glipizide at a dose of 0.05 g/kg were simultaneously gavaged per day for the ichangensin/glipizide combination group, ichangin glycoside at a dose of 0.05 g/kg and glipizide at a dose of 0.05 g/kg were simultaneously gavaged per day for the ichangin glycoside/glipizide combination group, the gavage volume was 10 mL/kg, and the normal group and the model group were administrated with 10 mL/kg of distilled water. […] The data were expressed as mean and standard deviation. […]"}, "[5]": {"tested_on": "db/db mice", "assay": "Blood glucose and insulin in mouse type II diabetes model, limonoid compound, gliquidone or combination", "conditions": "single administration 0.2 g/kg per day by gavage, two weeks", "text": "In the present embodiment, the limonoid compound was selected from nomilin, deacetylnomilin, nomilin acid, deacetylnomilin acid glycoside, and gliquidone single administration group, nomilin single administration group, deacetylnomilin single administration group, nomilin acid single administered group, deacetylnomilin acid glycoside single administration group, and respective combination thereof with gliquidone administration groups were set.\nConditions for experimental feeding: as type II diabetes model mice, 6-week-old SPF-grade db/db mice were purchased from the Nanjing Model Biology Institute, and subjected to experimental feeding after 7 days of preliminary feeding. It should be noted that the conditions for raising the mice were as follows: the temperature was 23±1° C., the humidity was 55±10%, the lights were turned on between 7 am and 7 pm (the lights were turned off at other time), and the mice were allowed to freely take in water and feed. The experimental feed was mouse growth-stable feed (GB M2118), and the daily feeding and management of the animals were under the responsibility of the animal security department, which provided the animals with sufficient diet and fresh drinking water daily.\nExperimental grouping: male db/db mice (20±2 g) were selected, 18 male mice in each group were tested, and drinking bottles were sterilized weekly. […]"}}}
{"smiles": "COc1ccc(Cl)cc1C(=O)NCCc1ccc(S(=O)(=O)NC(=O)NC2CCCCC2)cc1", "note": "[Glibenclamide, glibenclamide]", "values": [{"measurement": "Blood glucose value", "setting": "[1]", "value": "18.3 ± 3.2", "unit": "mmol/L"}]}
{"smiles": "Cc1ccc(S(=O)(=O)NC(=O)NN2CC3CCCC3C2)cc1", "note": "(stereo not drawn) [Gliclazide, gliclazide]", "values": [{"measurement": "Blood glucose value", "setting": "[2]", "value": "11.5 ± 2.9", "unit": "mmol/L"}]}
{"smiles": "CCC1=C(C)CN(C(=O)NCCc2ccc(S(=O)(=O)NC(=O)N[C@H]3CC[C@H](C)CC3)cc2)C1=O", "note": "[Glimepiride, glimepiride]", "values": [{"measurement": "Blood glucose value", "setting": "[3]", "value": "10.4 ± 2.1", "unit": "mmol/L"}]}
{"smiles": "Cc1cnc(C(=O)NCCc2ccc(S(=O)(=O)NC(=O)NC3CCCCC3)cc2)cn1", "note": "[Glipizide, glipizide]", "values": [{"measurement": "Blood glucose value", "setting": "[4]", "value": "14.5 ± 2.3", "unit": "mmol/L"}]}
{"smiles": "COc1ccc2c(c1)C(=O)N(CCc1ccc(S(=O)(=O)NC(=O)NC3CCCCC3)cc1)C(=O)C2(C)C", "note": "[gliquidone]", "values": [{"measurement": "Insulin", "setting": "[5]; serum, ELISA, model group 10.56 ± 3.00, normal 1.05 ± 0.39", "value": "7.82 ± 1.52", "unit": "pg/mL"}, {"measurement": "Blood glucose value", "setting": "[5]; 1 h after last administration, model group 23.9 ± 4.2, normal 6.0 ± 0.7", "value": "10.3 ± 2.1", "unit": "mmol/L"}]}
